# Residues, ends and D or L forms follow the SMILES beside them. *: point of attachment. Cbz = O=C(OCc1ccccc1)*; CH2Cl = ClC*
# How the values were obtained:
# MBP-Sb9 [1] = assay: Thermal stability assay (TSA) fragment screen; type: binding; settings: 5000 to 21 μM
# Experimental: FIG. 4A. The upper panels show the TSA results of the MBP-Sb9 protein incubated with 5 mM 3,4-dihydroxybenzoic acid (3,4-DHBA; left) and 3-oxo-1-indancarboxylic acid (right), or with 2.5% DMSO. The thermal shifts of the compounds 3,4-dihydroxybenzoic acid and 3-oxo-1-indancarboxylic acid are shown in a thick dark line against a baseline control shown as a thin gray line. The bottom panels show the TSA results of the MBP-Sb9 protein incubated with 3,4-dihydroxybenzoic acid (left) or 3-oxo-1-indancarboxylic acid (right) at different concentrations, including 5000, 1667, 556, 185, 62, and 21 μM. The concentration-response curves are plotted in a black/gray color scale (higher intensity is higher concentration) and the straight line plots represent the compound background signal.
# TSA is an analytic tool to estimate the overall stability of a protein by monitoring the shift in its melting temperature upon changing the buffer conditions or titrating various ligands. As the protein unfolds with increasing temperature in a thermal cycler (CFX384 Touch Real-Time PCR Detection System), SYPRO orange dye binds to the exposed hydrophobic core and fluoresces, leading to the signal that is measured in comparison to temperature to produce a melt curve. […] Dye was added at 2×strength, and the readings were performed from 25° C. to 95° C. at 0.5° C. intervals. […]
# [2] = system: B16-WT and B16-Sb9 KO cells; assay: IL2-induced GrB expression and apoptosis by flow cytometry; type: cell-based, mouse; settings: 10 μM; IL2 70 ng/mL, 48 h
# From the text: FIG. 1H. […] Data are expressed as means±SD from three independent experiments. ***P<0.001 (Student's t-test).
# FIGS. 1J-1K. […] Cells treated with PBS alone were used as a negative control. Data are expressed as means±SD from three independent experiments. *P<0.05, ***P<0.001 (Student's t-test).
# SERPINB9 [3] = target: T1, SERPINB9 (Homo sapiens, UniProt P50453); assay: Ligand-detected NMR (DLB, STD, CPMG-R2); type: binding
# T1 construct: A construct of human SERPINB9 covering residues 2-376 in the pFastBacl vector; made in house; host or cells: insect Tni (Trichoplusia ni) cells, baculovirus
# T1 sequence (P50453 2-376): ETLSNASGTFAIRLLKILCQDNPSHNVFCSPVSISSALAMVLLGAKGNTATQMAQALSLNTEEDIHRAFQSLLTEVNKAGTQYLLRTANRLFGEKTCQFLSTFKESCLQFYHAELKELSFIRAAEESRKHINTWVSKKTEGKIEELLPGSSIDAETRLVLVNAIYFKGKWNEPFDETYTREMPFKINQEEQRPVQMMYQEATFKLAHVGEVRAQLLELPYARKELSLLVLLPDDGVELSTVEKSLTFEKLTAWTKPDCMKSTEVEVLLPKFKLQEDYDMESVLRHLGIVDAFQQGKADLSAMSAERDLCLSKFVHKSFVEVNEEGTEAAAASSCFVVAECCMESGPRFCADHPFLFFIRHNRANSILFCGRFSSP
# From the text: Ligand-focused NMR. To test the binding of Compound 27 and Compound 225 to SERPINB9, we used three ligand-detected nuclear magnetic resonance (NMR) methods: differential line broadening (DLB), saturation transfer difference (STD), and Carr-Purcell-Meiboom-Gill-transverse relaxation rate (CPMG-R2). […] Second, on-resonance saturation of SERPINB9 decreased the intensity of compound peaks in the STD experiment, indicating transmission of magnetization energy from SERPINB9 to proximal ligands. Finally, as ligands engaging the target protein relax faster (compared to free small molecules that have slow transverse relaxation rates in CPMG-R2 experiments), we saw a decreased relaxation time in the presence of a protein directly indicating binding of the ligand to that protein.
# SERPINB9 [4] = target: T1, SERPINB9; assay: Isothermal titration calorimetry (ITC); type: binding; settings: 20 μM SERPINB9 titrated with 200 μM compound, single site model
# Experimental: In an attempt to produce a soluble variant of Sb9, a construct was designed in which a maltose-binding protein (MBP) was added at the N-terminus (FIG. 4B). Sb9 was soluble in multiple growth media conditions using this strategy. The condition (1 mM IPTG, 37° C., 3 h) for best expression was selected for biomass production with 5 L culture. The cells were lysed and clarified by centrifugation. The fusion protein was then captured by Ni-NTA affinity purification, such that it was eluted using high concentration imidazole. Then, the resulting protein was further purified by anionic exchange chromatography using a MonoQ column and a NaCl gradient for elution. An amount of 31.4 mg protein was obtained. The purified Sb9 protein was characterized by SDS-PAGE and MALDI-TOF mass spectrometry (MS). A construct of human SERPINB9 covering residues 2-376 in the pFastBacl vector (Invitrogen) was overexpressed in insect Tni (Trichoplusia ni.) cells adapted for suspension culture in ESF921 medium (Expression systems). Cells were grown at 27° C. to a density of ˜2 million cells per mL, infected with baculovirus containing SERPINB9 construct, collected by centrifugation around 60 hrs post-infection, and stored at −80° C. […]
# MBP-Sb9 [5] = target: T2, MBP-Sb9 (Homo sapiens, UniProt P50453); assay: Surface plasmon resonance (SPR) binding; settings: 25° C., 1:1 Langmuir model
# T2 construct: made in house
# Experimental: Surface plasmon resonance (SPR) measures change in refractive index on a biosensor surface, as analytic mass accumulates via binding to an attached ligand. This allows derivation of affinity (KD) from measured kinetic rates of association (ka) and dissociation (kd). All assays were run at 25° C. on a BiOptix 404pi. An NTA biosensor chip was used in this study to pre-concentrate 3 μM MBP-Sb9 via an N-terminal His-tag. MBP-Sb9 was covalently immobilized with EDC/NHS in 20 mM HEPES pH 8.0, 150 mM NaCl, 0.05% Tween-20, 5 mM β-ME to 10,000 to 15,000 RUs. MBP was similarly immobilized on a separate channel as a negative control. Compounds were injected as 3-fold serial dilutions in duplicate starting at 200 μM. Injections were done at 50 μL/min for 60 seconds, followed by a 120 second dissociation in 20 mM HEPES, pH 8.0, 150 mM NaCl, 0.05% Tween-20, 5 mM j-ME, 1% DMSO. A series of five DMSO standards between 0.5% and 1.5% were included with each run to correct for bulk refractive index. Sensorgrams were analyzed using Scrubber 2 software with a double reference and fit to a 1:1 Langmuir model to determine the interaction parameters KD, ka, and kd.
# MBP = MBP (Escherichia coli, UniProt P0AEX9); assay: SPR negative control channel; type: binding
# Experimental: FIG. 4B. Sensorgrams of compounds 3,4-dihydroxybenzoic acid (top), 3-oxo-1-indancarboxylic acid (middle), and the compound of Formula (III) (bottom) show the binding of 3,4-dihydroxybenzoic acid and the compound of Formula (III) to Sb9 (top), but not to MBP (bottom) by Surface Plasmon Resonance (SPR).
# All assays were run at 25° C. on a BiOptix 404pi. An NTA biosensor chip was used in this study to pre-concentrate 3 μM MBP-Sb9 via an N-terminal His-tag. MBP-Sb9 was covalently immobilized with EDC/NHS in 20 mM HEPES pH 8.0, 150 mM NaCl, 0.05% Tween-20, 5 mM β-ME to 10,000 to 15,000 RUs. MBP was similarly immobilized on a separate channel as a negative control.
# T2 sequence (P50453 whole entry): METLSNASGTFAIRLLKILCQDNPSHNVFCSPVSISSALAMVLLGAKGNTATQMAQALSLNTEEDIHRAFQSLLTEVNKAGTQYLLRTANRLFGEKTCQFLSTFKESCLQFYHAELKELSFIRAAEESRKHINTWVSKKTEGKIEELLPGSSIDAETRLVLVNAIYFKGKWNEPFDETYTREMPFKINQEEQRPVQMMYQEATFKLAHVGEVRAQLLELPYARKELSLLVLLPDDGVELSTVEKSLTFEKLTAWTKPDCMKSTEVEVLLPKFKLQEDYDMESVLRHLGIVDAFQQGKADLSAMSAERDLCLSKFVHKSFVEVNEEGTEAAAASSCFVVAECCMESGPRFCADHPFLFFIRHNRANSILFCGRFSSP
SMILES,Tm1 shift (MBP-Sb9 [1]),binding to SERPINB9 by ligand-detected NMR (SERPINB9 [3]),Kd (SERPINB9 [4]),further results
O=C1CC(C(=O)O)c2ccccc21 (stereo not drawn) [3-oxo-1-indancarboxylic acid],dose-dependent Tm1 shift,,,
C[C@H](NC(=O)OCc1ccccc1)C(=O)N[C@@H](C)C(=O)N[C@@H](CC(=O)O)C(=O)CCl [GrB inhibitor (368050)] (Cbz-Ala-Ala-Asp-CH2Cl),,,,apoptosis of IL2-treated cells [2]: suppresses apoptosis
"CCN(C)C(=O)c1ccc2nc(-c3ccccc3)oc2c1 [Compound 27, N-ethyl-N-methyl-2-phenyl-1,3-benzoxazole-6-carboxamide]",,SERPINB9 binders,21.5 µM,
"CCOc1ccc(C(=O)NCc2ccccc2)cc1O [Compound 227, N-benzyl-4-ethoxy-3-hydroxybenzamide]",,SERPINB9 binders,28.8 µM,
"O=C(O)c1ccc(O)c(O)c1 [3,4-dihydroxybenzoic acid, reference compound]",dose-dependent Tm1 shift,,,Kd (MBP-Sb9 [5]): 88 µM; binding to MBP (negative control) (MBP): not to MBP

# From US20230255906A1, “Targeting Serpin B9 in Cancer” (The Brigham and Women`s Hospital, Inc., priority 2020, published 2023)
